PubChem BioAssay AID1963834 (Molecular Pharmacology Branch, DTP, NCI, 2024)

Tested on: 873145-292-R-J1-PDC complex spheroid viability
Experiment: Anticancer human tumor 873145-292-R-J1-PDC patient-derived renal clear cell carcinoma cell line growth inhibition [POLQ]
Details: for IC50: curve of first compound; for viability, T/C: stronger effect = lower value
How it was run: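 Three-cell-type spheroids modelling solid tumor plus stroma served as the readout system; POL inhibitors were tested individually and in combination, concentration ranges set by clinical Cmax where known.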

[1] = second compound 0.0316 µM, first compound 0.0316 µM
[2] = second compound 0.0316 µM, first compound 0.1 µM
[3] = second compound 0.0316 µM, first compound 0.316 µM
[4] = second compound 0.0316 µM, first compound 1 µM
[5] = second compound 0.1 µM, first compound 0.0316 µM
[6] = second compound 0.1 µM, first compound 0.1 µM
[7] = second compound 0.1 µM, first compound 0.316 µM
[8] = second compound 0.1 µM, first compound 1 µM
[9] = second compound 0.316 µM, first compound 0.0316 µM
[10] = second compound 0.316 µM, first compound 0.1 µM
[11] = second compound 0.316 µM, first compound 0.316 µM
[12] = second compound 0.316 µM, first compound 1 µM
[13] = second compound 1 µM, first compound 0.0316 µM
[14] = second compound 1 µM, first compound 0.1 µM
[15] = second compound 1 µM, first compound 0.316 µM
[16] = second compound 1 µM, first compound 1 µM
[17] = second compound 3.16 µM, first compound 0.0316 µM
[18] = second compound 3.16 µM, first compound 0.1 µM
[19] = second compound 3.16 µM, first compound 0.316 µM
[20] = second compound 3.16 µM, first compound 1 µM
[21] = second compound 10 µM, first compound 0.0316 µM
[22] = second compound 10 µM, first compound 0.1 µM
[23] = second compound 10 µM, first compound 0.316 µM
[24] = second compound 10 µM, first compound 1 µM
[25] = second compound 0.0316 µM, first compound 3.16 µM
[26] = second compound 0.0316 µM, first compound 10 µM
[27] = second compound 0.1 µM, first compound 3.16 µM
[28] = second compound 0.1 µM, first compound 10 µM
[29] = second compound 0.316 µM, first compound 3.16 µM
[30] = second compound 0.316 µM, first compound 10 µM
[31] = second compound 1 µM, first compound 3.16 µM
[32] = second compound 1 µM, first compound 10 µM
[33] = second compound 3.16 µM, first compound 3.16 µM
[34] = second compound 3.16 µM, first compound 10 µM
[35] = second compound 10 µM, first compound 3.16 µM
[36] = second compound 10 µM, first compound 10 µM
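Also: spheroids exposed to compounds for 7 days before viability readout.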
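For viability, T/C in this document: luminescence signal used as surrogate for viable cell content; 100% = DMSO vehicle control viability.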

Work on `C=CCn1c(=O)c2cnc(Nc3ccc(N4CCN(C)CC4)cc3)nc2n1-c1cccc(C(C)(C)O)n1` + COC1C(OC(N)=O)C(O)C(Oc2ccc3c(O)c(NC(=O)c4ccc(O)c(CC=C(C)C)c4)c(=O)oc3c2C)OC1(C)C yielded an IC50 (second compound 0.0316 µM) of over 1000 nM, an IC50 (second compound 0.1 µM) of over 1000 nM and an IC50 (second compound 0.316 µM) of over 1000 nM. The IC50 (second compound 1 µM) was over 1000 nM, the IC50 (second compound 3.16 µM) was over 1000 nM and the IC50 (second compound 10 µM) was over 1000 nM. The viability, T/C (second compound 0.0316 µM, first compound 0.00316 µM) was 98.9%, the viability, T/C (second compound 0.0316 µM, first compound 0.01 µM) was 109% and the viability, T/C [1] was 89.8%. The viability, T/C [2] was 85.5%, the viability, T/C [3] was 90.7% and the viability, T/C [4] was 70.1%. It also gave a viability, T/C (second compound 0.1 µM, first compound 0.00316 µM) of 102%, a viability, T/C (second compound 0.1 µM, first compound 0.01 µM) of 97.6% and a viability, T/C [5] of 100%. The viability, T/C [6] was 95.5%, the viability, T/C [7] was 84.9% and the viability, T/C [8] was 69.9%. For the same molecule, the viability, T/C (second compound 0.316 µM, first compound 0.00316 µM) was 100%, the viability, T/C (second compound 0.316 µM, first compound 0.01 µM) was 109% and the viability, T/C [9] was 96%. It also gave a viability, T/C [10] of 97.7%, a viability, T/C [11] of 83.5% and a viability, T/C [12] of 74.5%. For the same molecule, the viability, T/C (second compound 1 µM, first compound 0.00316 µM) was 98.8%, the viability, T/C (second compound 1 µM, first compound 0.01 µM) was 96% and the viability, T/C [13] was 99.6%. The viability, T/C [14] was 83.2%, the viability, T/C [15] was 94.6% and the viability, T/C [16] was 63.1%. It also gave a viability, T/C (second compound 3.16 µM, first compound 0.00316 µM) of 100%, a viability, T/C (second compound 3.16 µM, first compound 0.01 µM) of 98.8% and a viability, T/C [17] of 89.5%. It also gave a viability, T/C [18] of 89.5%, a viability, T/C [19] of 88.3% and a viability, T/C [20] of 75.7%. It also gave a viability, T/C (second compound 10 µM, first compound 0.00316 µM) of 100%, a viability, T/C (second compound 10 µM, first compound 0.01 µM) of 92.1% and a viability, T/C [21] of 101%. The viability, T/C [22] was 96.8%, the viability, T/C [23] was 76.5% and the viability, T/C [24] was 72%.
`CC1COCCN1c1cc(-c2ccnn2C)c2ccnc(-c3ccn[nH]3)c2n1` (stereo unspecified) + COC1C(OC(N)=O)C(O)C(Oc2ccc3c(O)c(NC(=O)c4ccc(O)c(CC=C(C)C)c4)c(=O)oc3c2C)OC1(C)C was tested, and the IC50 (second compound 0.0316 µM) was 1520 nM, the IC50 (second compound 0.1 µM) was 986 nM and the IC50 (second compound 0.316 µM) was 1210 nM. The IC50 (second compound 1 µM) was 864 nM, the IC50 (second compound 3.16 µM) was 952 nM and the IC50 (second compound 10 µM) was 948 nM. For the same molecule, the viability, T/C [1] was 86.7%, the viability, T/C [2] was 80.9% and the viability, T/C [3] was 68.6%. The viability, T/C [4] was 54.8%, the viability, T/C [25] was 42.2% and the viability, T/C [26] was 38.5%. It also gave a viability, T/C [5] of 94.1%, a viability, T/C [6] of 83.4% and a viability, T/C [7] of 70%. For the same molecule, the viability, T/C [8] was 47.1%, the viability, T/C [27] was 43.8% and the viability, T/C [28] was 47.3%. The viability, T/C [9] was 94.2%, the viability, T/C [10] was 76.3% and the viability, T/C [11] was 63.7%. It also gave a viability, T/C [12] of 51.6%, a viability, T/C [29] of 41.2% and a viability, T/C [30] of 45.1%. The viability, T/C [13] was 92.5%, the viability, T/C [14] was 80.9% and the viability, T/C [15] was 63.4%. For the same molecule, the viability, T/C [16] was 47.6%, the viability, T/C [31] was 42.1% and the viability, T/C [32] was 42.3%. It also gave a viability, T/C [17] of 85.1%, a viability, T/C [18] of 79.8% and a viability, T/C [19] of 66.8%. It also gave a viability, T/C [20] of 49.9%, a viability, T/C [33] of 38.3% and a viability, T/C [34] of 38.1%. For the same molecule, the viability, T/C [21] was 93%, the viability, T/C [22] was 82.8% and the viability, T/C [23] was 67.2%. For the same molecule, the viability, T/C [24] was 47.6%, the viability, T/C [35] was 43.7% and the viability, T/C [36] was 41.8%.
In the case of `CC1COCCN1c1cc(C2(S(C)(=N)=O)CC2)nc(-c2ccnc3[nH]ccc23)n1` (stereo unspecified) + COC1C(OC(N)=O)C(O)C(Oc2ccc3c(O)c(NC(=O)c4ccc(O)c(CC=C(C)C)c4)c(=O)oc3c2C)OC1(C)C, the IC50 (second compound 0.0316 µM) is reported as over 10000 nM, the IC50 (second compound 0.1 µM) is reported as over 10000 nM and the IC50 (second compound 0.316 µM) is reported as over 10000 nM. For the same molecule, the IC50 (second compound 1 µM) was over 10000 nM, the IC50 (second compound 3.16 µM) was over 10000 nM and the IC50 (second compound 10 µM) was over 10000 nM. It also gave a viability, T/C [1] of 98.8%, a viability, T/C [2] of 101% and a viability, T/C [3] of 88.6%. The viability, T/C [4] was 88.3%, the viability, T/C [25] was 86.4% and the viability, T/C [26] was 67.8%. It also gave a viability, T/C [5] of 105%, a viability, T/C [6] of 94.7% and a viability, T/C [7] of 90.8%. The viability, T/C [8] was 90.1%, the viability, T/C [27] was 81.3% and the viability, T/C [28] was 58.5%. It also gave a viability, T/C [9] of 102%, a viability, T/C [10] of 95.6% and a viability, T/C [11] of 90%. For the same molecule, the viability, T/C [12] was 82.7%, the viability, T/C [29] was 80.3% and the viability, T/C [30] was 55.8%. For the same molecule, the viability, T/C [13] was 100%, the viability, T/C [14] was 90.2% and the viability, T/C [15] was 96.7%. The viability, T/C [16] was 95.6%, the viability, T/C [31] was 85.6% and the viability, T/C [32] was 61.5%. For the same molecule, the viability, T/C [17] was 100%, the viability, T/C [18] was 90.1% and the viability, T/C [19] was 103%. It also gave a viability, T/C [20] of 82.7%, a viability, T/C [33] of 82.6% and a viability, T/C [34] of 62.2%. It also gave a viability, T/C [21] of 95.1%, a viability, T/C [22] of 92.9% and a viability, T/C [23] of 95.6%. It also gave a viability, T/C [24] of 81.1%, a viability, T/C [35] of 74.8% and a viability, T/C [36] of 64.6%.
